Results taken from US6713491B2, “Heterocyclic derivatives” (priority 1999, dated 2004).

Columns and labels:
mice = assay: tolerability on administration to mice; type: in vivo; settings: pharmacological active doses
[1] = target: T1, strychnine insensitive glycine binding site associated with the NMDA receptor complex (Rattus norvegicus, UniProt P35439); assay: binding at the strychnine insensitive glycine binding site (procedure of Kishimoto H et al.)
T1 construct: from tissue; host or cells: rat CNS membranes (inferred from the cited procedure)
Description: (§1) The potent and selective action of the compound of the invention at the strychnine-insensitive glycine binding site present on the NMDA receptor complex may be readily determined using conventional test procedures. Thus the ability to bind at the strychnine insensitive glycine binding site was determined using the procedure of Kishimoto H et al., J Neurochem 1981, 37, 1015-1024. The selectivity of the action of compounds of the invention for the strychnine insensitive glycine site was confirmed in studies at other ionotropic known excitatory amino acid receptors.

NMDA binding site = assay: selectivity study at other ionotropic excitatory amino acid receptors: NMDA binding site
Description: as §1

[2] = tested on: a-amino-3-hydroxy-5-methyl-4-isoxazole-proprionic acid (AMPA) receptor; assay: selectivity study at other ionotropic excitatory amino acid receptors: AMPA; type: binding
Description: as §1

[3] = tested on: kainic acid (kainate) receptor; assay: selectivity study at other ionotropic excitatory amino acid receptors: kainate; type: binding
Description: as §1

With `CNC[C@H](O)[C@@H](O)[C@H](O)[C@H](O)CO.O=C(O)C1CC(=C2CCN(c3ccccc3)C2=O)c2ccc(Cl)cc2N1` (single isomer, unassigned; enantiomer a) [compound of the invention, meglumine salt of enantiomer A of 7-chloro-4-(2-oxo-1-phenyl-3-pyrrolidinylidene)-1,2,3,4-tetrahydro-2-quinolinecarboxylic acid] the untoward effects (mice) was “No untoward effects”, the “antagonism at the strychnine insensitive glycine binding site” value [1] was “potent antagonist” and the “affinity at the NMDA binding site” value (NMDA binding site) was “little or no affinity”. For the same molecule, the “affinity for the AMPA receptor” value [2] was “little or no affinity” and the “affinity for the kainic acid (kainate) receptor” value [3] was “little or no affinity”.
